# Paper PMC4077824, “Conserved Prosegment Residues Stabilize a Late-Stage Folding Transition State of Pepsin Independently of Ground States” (PLoS ONE, 2014)
# “And” between values parts separate entries of the source, which are not always exact repeats. Equal entries are not always repeated. “Also recorded” adds a separate entry of the source. Where no end group is shown, it is not given here.
# Columns and labels:
# refolded pepsin (Rp) [1] = biological target: T1, refolded pepsin (Rp) (Sus scrofa, UniProt P00791); test: PS-catalyzed folding of Rp to Np (recovery of Np activity); assay type: biochemical, porcine; settings: for k f (PS-catalyzed folding rate constant): 1 µM Rp, 30 µM PS, pH 5.3 (20 mM acetic acid/NaOH, 100 mM NaCl), Np activity assayed at pH 1.2, 25°C with KPAEFF(NO2)AL, monoexponential fit, mean ± SD from non-linear curve fitting, 3-5 measurements; for k f (PS-catalyzed folding rate constant) / ΔΔG^‡ (change in folding activation energy upon mutation): 15°C; for ΔΔG^‡ (change in folding activation energy upon mutation): from k f, pH 5.3, relative to WT, ± SD by propagation of errors; for effect on rate of PS-catalyzed folding (in words): pH 5.3, 15°C, compared with PSwt
# T1 construct: Only the R13 and K36 side-chains of the PS form hydrogen bonds with the mature pepsin domain; purchased Sigma (St. Louis, MO, USA)
# Experimental: PS-catalyzed folding of Rp to Np
# PS-catalyzed folding was carried out by combining 1 µM Rp and 30 µM PS, in a volume of 100 µl, at pH 5.3 (20 mM acetic acid/NaOH with 100 mM NaCl) and 15°C. Aliquots were taken at several time intervals, diluted 20-fold in 50 mM phosphoric acid buffer, pH 1.2, incubated for 5 min at 25°C and assayed for Np activity using the KPAEFF(NO2)AL substrate. The recovery of Np activity with time, t, was fit with a monoexponential function (y = a – bexp(–k f t)) to obtain the PS-catalyzed folding rate constant, k f. Under these conditions, PS binding to Rp reached equilibrium within the dead-time of mixing (<8 sec), as judged by Trp-fluorescence.
# (§1) The change in stability of the folding transition state upon mutation was calculated using [drawing 3] (3) where k f, wt and k f, mut are the PS-catalyzed folding rate constants of the wild-type and mutant PS peptides. The change in equilibrium stability of PS-Np relative to PS-Rp upon mutation of the PS (ΔΔGPS(Np-Rp)) was determined as the difference between the changes in binding energies, using [drawing 4] (4) and [drawing 5] (5)
# Temperature dependence of PS-catalyzed folding
# PS-catalyzed folding could be measured only up to 15 °C for PSwt, as the reaction was too fast at higher temperatures. […] Given the linear temperature dependence it could be reasonably assumed that changes in activation energies (mutant – wild-type) would be unchanged from 15 °C to 20 °C, and so could be compared directly with changes in binding energies (wild-type – mutant) that were determined at 20 °C.
# native pepsin (Np) = biological target: T2, native pepsin (Np) (Sus scrofa, UniProt P00791); test: PS binding to Np (competitive inhibition of KPAEFF(NO2)AL hydrolysis); assay type: biochemical, porcine; settings: for Ki: 10 nM Np, 20 mM acetic acid/NaOH pH 5.3, 100 mM NaCl, 5 min incubation, substrate KPAEFF(NO2)AL 0.1 mM, absorbance 300 nm, competitive model, mean ± SD from non-linear curve fitting, 3-5 measurements, read-out: K i (PS-Np inhibition constant); for Ki / ΔΔGPS-Np (change in PS-Np binding energy upon mutation): 20°C; for ΔΔGPS-Np (change in PS-Np binding energy upon mutation): from K i, pH 5.3, relative to WT, ± SD by propagation of errors; for effect on affinity for Np / PS-Np stability (in words): pH 5.3, 20°C, PS inhibition of Np, compared with PSwt
# T2 construct: Only the R13 and K36 side-chains of the PS form hydrogen bonds with the mature pepsin domain; purchased Sigma (St. Louis, MO, USA)
# Experimental: PS binding to Np was determined by using the PS as a competitive inhibitor and measuring the inhibition constant, K i. Hydrolysis of the KPAEFF(NO2)AL substrate was measured by following the decrease in absorbance at 300 nm using a Biochrom Ultrospec 3100pro UV-Vis spectrophotometer (Biochrom Ltd., Cambridge, England) in 20 mM acetic acid/NaOH buffer, pH 5.3, containing 100 mM NaCl. Np samples were diluted to 10 nM and incubated with PS for 5 min at 20°C and assayed for activity. The reaction rates were normalized to the activity in the absence of PS and the data fit using the competitive inhibitor form of the Michaelis-Menten equation [drawing 2] (2) where v0 is the initial reaction rate, V max is the maximum reaction rate, [S] is the substrate concentration (fixed at 0.1 mM), [I] is the inhibitor concentration, and K M is the Michaelis constant.
# as §1
# (§2) Here, ΔΔGbind refers to either ΔΔGPS-Rp, determined from K d values, or ΔΔGPS-Np, determined from K i values. The Φ-value for each mutant corresponds to eq 3 divided by eq 5. Additional details are included in the supporting information section (Text S1).
# refolded pepsin (Rp) [2] = biological target: T1, refolded pepsin (Rp); test: PS binding to Rp (Trp-fluorescence); parameters: species or system porcine; settings: for Kd: 0.6-1.2 µM Rp, 20 mM acetic acid/NaOH pH 5.3 without added NaCl, ≥10 min, Trp-fluorescence ex 295 nm, em 315 nm, mean ± SD from non-linear curve fitting, 3-5 measurements, read-out: K d (PS-Rp dissociation constant); for Kd / ΔΔGPS-Rp (change in PS-Rp binding energy upon mutation): 20°C; for ΔΔGPS-Rp (change in PS-Rp binding energy upon mutation): from K d, pH 5.3, relative to WT, ± SD by propagation of errors
# Experimental: The change in intrinsic tryptophan fluorescence of pepsin was used to measure the binding of PS to Rp and to determine the dissociation constant, K d. Rp solutions were diluted to between 0.6 and 1.2 µM in 20 mM acetic acid/NaOH buffer, pH 5.3, and mixed with various amounts of PS. After incubating the samples at 20°C for ≥10 minutes, the intrinsic tryptophan fluorescence was measured using a PTI spectrofluorophotometer (Photon Technology International, Inc., Birmingham NJ, USA), with excitation at 295 nm and emission measured at 315 nm. The change in fluorescence, ΔF i, at each PS concentration, [PS], was normalized relative to the maximum change, ΔF max, and fit according to [drawing 1] (1) where [Rp] is the total concentration of pepsin.
# PS binding to Rp was measured in buffer without added 100 mM NaCl in order to obtain more accurate measurements of K d, owing to a larger change in signal in the absence of salt. Additionally, without added 100 mM NaCl it was possible to isolate the PS-Rp binding step from the catalyzed folding step thereby improving the determination of K d.
# as §1, §2
# [3] = test system: pepsin (PS-Rp, PS-TS, PS-Np complexes); test: Φ-value analysis from PS-catalyzed folding and binding constants; parameters: species or system porcine; settings: ± SD by propagation of errors; for Φ: ratio ΔΔG^‡/ΔΔGPS(Np-Rp); for ΔΔGPS(Np-Rp) (change in equilibrium stability of PS-Np relative to PS-Rp): ΔΔGPS-Np minus ΔΔGPS-Rp
# Experimental: Calculation of Φ-values from PS-catalyzed folding and binding constants
# as §1, §2
# As outlined below, ∆Gbind values are used to calculate ∆∆GPS(Np-Rp), which is the change in the equilibrium free energy difference between PS-Np and PS-Rp upon mutation of the PS (for a diagram of the folding reaction, see Fig S1)
# ΔΔGbind can refer to either ∆∆G^PS-Np(wt-mut) or ∆∆G^PS-Rp(wt-mut). Also, we can write ∆Gbind in terms of its components
# where ∆GPS, ∆Gpepsin and ∆Gsolvent refer to the change in free energy of the PS, pepsin and the solvent upon PS binding to pepsin, respectively. Combining equations S1 and S2 gives
# The contribution of each component to ∆∆Gbind will depend on the particular mutation (e.g., nature of substitution, location within folded structure, solvent accessibility). This is the general case for protein engineering analysis, in which the effects of mutations on changes in equilibrium and activation energies are the result of many individual interaction energy terms, including solvent terms, as previously explained in detail [Fersht AR, Matouschek A, Serrano L (1992) The folding of an enzyme I. Theory of protein engineering analysis of stability and pathway of protein folding. J Mol Biol 224: 771‒782]. Most importantly, there is no requirement to separate ΔΔGbind into its components in order to proceed with analysis as we are interested in the overall change in equilibrium stability of the PS-pepsin complex (∆∆GPS(Np-Rp))
# This bimolecular approach to Φ-value analysis of protein folding is qualitatively identical to Φ-value analysis as it was originally applied to the study of enzyme catalysis. As outlined previously [Fersht AR], changes in the free energy of enzyme (E) binding to substrate (S) or product (P) are used to determine the change in free energy difference between E-P and E-S upon mutation, ∆∆G^EP-ES(wt-mut), where
# As these are at the scale of global energy terms, equations S4 and S5 are equivalent and PS-catalyzed folding can be treated similarly as enzyme catalysis, in which the PS is the foldase and the denatured and natively folded protein are the substrate and product, respectively. However, protein folding reactions are more complicated to interpret at the level of individual interaction energy terms, which are more numerous [Fersht AR].
# Changes in the binding energies between PS-Rp and PS-Np upon PS mutation can then be used to determine Φ-values with the following considerations:
# 1. Free PS is unstructured (see Fig S6), so Ala mutations are expected to have a negligible effect on the stability and conformation of free PS.
# 2. Changes in binding and folding upon mutation can be localized to the loss of interactions in the immediate vicinity of the truncation mutation (i.e., larger residue mutated to Ala), and not due to gross conformational changes of the PS or changes in the binding/folding mechanism (consider as strong evidence that all of the mutant PS’s readily catalyze folding to the native, active form).
# 3. Changes in PS-Rp and PS-Np binding energies upon mutation (∆∆G^PS-Np(wt-mut) and ∆∆G^PS-Rp(wt-mut)) are measured directly, while the change in the PS-TS binding energy (∆∆G^PS-TS(wt-mut)) is the sum of ∆∆G^PS-Rp(wt-mut) and ∆∆G^‡(wt-mut).
# 4. Φ-values are calculated using […]
# pepsin = settings: native state relative to an intermediate state; ref [7]; cited from earlier work
# Description: General thermodynamic and kinetic features of protein folding are known, such as that the natively folded conformation of a protein is thermodynamically stabilized and that there is a relationship between topology and folding rate, which holds for both two-state and multi-state folding proteins, [3]. However, zymogen-derived proteins which require a prosegment (PS) domain to catalyze folding, such as the serine peptidases αLP [4], SGPB [5], and subtilisin [6], and the aspartic peptidase pepsin [7], deviate from the common thermodynamic and kinetic trends in protein foldin ... || Pepsin, which is derived from its zymogen pepsinogen, folds to a thermodynamically stable yet non-native form (termed refolded pepsin, Rp) upon removal from denaturing conditions. […] In the case of pepsin, Rp was characterized by a ΔG unf of 5.8 kcal/mol, a 10% increase in unordered secondary structure and identical tertiary structure to Np (both yield R g ∼20 Å).
# [4] = pH 5.3, 20°C, compared with PSwt
# T2 sequence (P00791 60-385): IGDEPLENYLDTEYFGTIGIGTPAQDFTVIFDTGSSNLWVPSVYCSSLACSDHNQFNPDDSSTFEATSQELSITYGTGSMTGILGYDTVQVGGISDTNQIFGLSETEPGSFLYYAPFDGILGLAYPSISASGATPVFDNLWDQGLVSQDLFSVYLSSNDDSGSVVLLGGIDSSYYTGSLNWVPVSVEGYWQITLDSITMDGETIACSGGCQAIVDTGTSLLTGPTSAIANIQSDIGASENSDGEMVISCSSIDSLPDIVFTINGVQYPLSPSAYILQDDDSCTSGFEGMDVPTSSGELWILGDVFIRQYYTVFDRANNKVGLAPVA
# T1 sequence (P00791 60-385): as above
Substance,k f (PS-catalyzed folding rate constant) (refolded pepsin (Rp) [1]) [min⁻¹],ΔΔG^‡ (change in folding activation energy upon mutation) (refolded pepsin (Rp) [1]) [kcal/mol],effect on rate of PS-catalyzed folding (in words) (refolded pepsin (Rp) [1]),Ki (native pepsin (Np)) [nM],ΔΔGPS-Np (change in PS-Np binding energy upon mutation) (native pepsin (Np)) [kcal/mol],Kd (refolded pepsin (Rp) [2]) [nM],ΔΔGPS-Rp (change in PS-Rp binding energy upon mutation) (refolded pepsin (Rp) [2]) [kcal/mol],Φ [3],ΔΔGPS(Np-Rp) (change in equilibrium stability of PS-Np relative to PS-Rp) [3] [kcal/mol],effect on affinity for Np / PS-Np stability (in words) (native pepsin (Np)),effect on affinity for Rp / PS-Rp stability (in words) (refolded pepsin (Rp) [2]; [4]),reduction in binding affinity for Rp (refolded pepsin (Rp) [2]; [4]) [fold],ΔG N-I (pepsin) [kcal/mol]
LVKVPAVRKKSLRQNLIKNGKLKDFLKTHKHNPASKYFPEAAAL [L6A],0.13 ± 0.01,1.36 ± 0.15,slowest folding rate,193 ± 38.8,0.64 ± 0.16,640 ± 90,0.43 ± 0.10,,,,,,
LVKVPLVRKKALRQNLIKNGKLKDFLKTHKHNPASKYFPEAAAL [S11A],0.18 ± 0.02,1.18 ± 0.15,a burst-phase in the folding kinetics was noticeable,270 ± 31.5,0.83 ± 0.12,680 ± 70,0.47 ± 0.08,3.2±1.4,0.36 ± 0.15,,,,
LVKVPLVRKKSLAQNLIKNGKLKDFLKTHKHNPASKYFPEAAAL [R13A],0.24 ± 0.02,1.02 ± 0.15,,382 ± 37.2,1.03 ± 0.12,1960 ± 290,1.08 ± 0.10,,,largest reduction in affinities for Np; also recorded: destabilized both the PS-Np and PS-Rp complexes,destabilized both the PS-Np and PS-Rp complexes,7,
LVKVPLVRKKSLRQNLIKNGKLKDALKTHKHNPASKYFPEAAAL [F25A],0.26 ± 0.04,0.96 ± 0.17,,230 ± 29.1,0.74 ± 0.13,250 ± 30,-0.12 ± 0.08,1.1 and 1.1±0.3,0.86 ± 0.15,,negligible effect on PS-Rp binding,,
LVKVPLVRKKSLRQNLIKNGKLKDFLKTHKHNPASAYFPEAAAL [K36A],0.28 ± 0.03,0.94 ± 0.15,,113 ± 20.3,0.33 ± 0.15,720 ± 140,0.50 ± 0.13,,,nearly equally destabilizing to PS-Rp and PS-Np,nearly equally destabilizing to PS-Rp and PS-Np,,
pepsin: Porcine pepsin A (EC 3.4.23.1); native pepsin (Np),,,,,,,,,,,,,-0.1
